Assay results: patent US20240344241A1, “PROTEINACEOUS MOLECULES AND USES THEREFOR” (THE UNIVERSITY OF QUEENSLAND, priority 2021, published 2024)
Bridge positions count the residues as written; N and C are the ends. Peptide text beside a SMILES is read from it.

Assays:
[1] = biological target: T1, Human β-FXIIa (Homo sapiens, UniProt P00748); test: FXIIa competitive inhibition assay, fluorescent substrate Boc-QGR-MCA; type: biochemical
T1 construct: Human β-FXIIa was obtained from Molecular Innovations, together with human FXa, human FXIa, human α-thrombin, and human plasma kallikrein; purchased Molecular Innovations; host or cells: purified from human plasma
T1 sequence (P00748 373-615 limits assumed, other chains not shown): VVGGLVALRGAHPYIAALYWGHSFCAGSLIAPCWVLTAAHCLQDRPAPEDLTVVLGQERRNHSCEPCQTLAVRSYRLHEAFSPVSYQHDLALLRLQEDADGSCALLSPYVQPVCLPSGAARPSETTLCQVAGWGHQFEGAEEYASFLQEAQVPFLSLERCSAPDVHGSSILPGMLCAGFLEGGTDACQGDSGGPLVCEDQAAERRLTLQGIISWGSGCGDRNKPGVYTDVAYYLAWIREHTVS
Source text: Cyclic [I7F]MCoFx1 (also referred to as cyclic MCoFx6) was synthesized using solid phase peptide synthesis ([[…]] [SEQ ID NO: 97]). For this inhibitor, Tyr33 was mutated back to serine as per the original mRNA display screen (FIG. 1). Cyclic MCoFx6 was screened using a competitive inhibition assay, with the substrate being changed from a colorimetric substrate (Ac-QRFR-pNA in the data of Tables 7 and 10) to a fluorescent substrate (Boc-QGR-MCA) to allow the assay to be run with a lower concentration of enzyme. The assay was performed as described for Examples 2 and 3, except that the FXIIa concentration was 0.5 nM and the substrate concentration was 50 μM (KM=187 μM).
The new variants were screened using competitive inhibition assays, with the substrate being changed from a colorimetric substrate (Ac-QRFR-pNA in the data of Tables 7 and 10) to a fluorescent substrate (Boc-QGR-MCA) to allow the assay to be run with a lower concentration of enzyme. Assays were performed as described for Examples 2 and 3, except that the FXIIa concentration was 0.5 nM and the substrate concentration was 50 μM (KM=187 μM). […] The effect of amino acid substitutions within loop 2 (Arg12, Arg13), loop 5 (Ala25, Arg27) or loop 6 (Asp34) on the activity of cyclic MCoFx7 against FXIIa was determined (refer to Table 14). […] Additionally, mutating Arg to Glu (reversing the side chain charge) only led to two-fold weaker activity. The adjacent residue Arg13 could also be mutated to Lys with no change in activity. Within loop 5, mutating Ala25 to Lys produced a slight gain in activity, whereas the Ala to Pro mutation led to a slight decrease in activity. Both mutations at Arg27 led to losses in activity in the order of two-fold (His) or 3.2-fold (Gly).
(§1) The activity of acyclic and cyclic MCoFx1-5 and analogues thereof was assessed in competitive inhibition assays, as previously described in Swedberg et al. (2016) J Med Chem, 59: 7287-7292. Human β-FXIIa was obtained from Molecular Innovations, together with human FXa, human FXIa, human α-thrombin, and human plasma kallikrein. Human cationic trypsin and human plasmin were obtained from Sigma-Aldrich, and recombinant human matriptase was sourced from R&D Systems. Recombinant human urokinase (uPA) and recombinant human tissue plasminogen activator (tPA) were expressed in Expi293 cells, as previously described in Li et al. (2019) Chembiochem, 20: 46-50. FXIIa inhibition assays were performed in clear, low-binding 96-well plates using 250 μL (final volume) of assay buffer (0.1 M Tris-HCl pH 8.0, 0.1 M NaCl, 10 mM CaCl2 and 0.005% Triton X-100). Inhibitors were serially diluted and incubated with 10 nM FXIIa at room temperature to reach equilibrium. After adding 100 μM Ac-QRFR-pNA substrate (KM=162 μM), enzymatic activity was measured by monitoring release of the pNA moiety using a TECAN infinite M1000 Pro plate reader (A=405 nm, reading interval, 10 s; assay time course, 7 min). Assays were conducted in three times in duplicate. Substrate kinetic constants (Michaelis-Menten) and inhibition constants (Morrison K) were determined by non-linear regression using Prism 7 (GraphPad). Selectivity assays with off-target proteases were performed in a similar way, except that different concentrations of enzyme and substrate were used, as indicated in Table 16. For assays using a fluorescent substrate (peptide-4-methylcoumaryl-7-amide, MCA), black low-binding 96-well plates were used and activity was measured using a TECAN infinite M1000 pro plate reader (λex 360 nm, λem 460 nm, reading interval, 30 s; assay time course, 5-30 min).

[2] = biological target: T2, bovine trypsin (Bos taurus, UniProt P00760); test: Surface plasmon resonance binding to trypsin; details: for affinity for trypsin (in words): SPR
T2 sequence (P00760 24-246): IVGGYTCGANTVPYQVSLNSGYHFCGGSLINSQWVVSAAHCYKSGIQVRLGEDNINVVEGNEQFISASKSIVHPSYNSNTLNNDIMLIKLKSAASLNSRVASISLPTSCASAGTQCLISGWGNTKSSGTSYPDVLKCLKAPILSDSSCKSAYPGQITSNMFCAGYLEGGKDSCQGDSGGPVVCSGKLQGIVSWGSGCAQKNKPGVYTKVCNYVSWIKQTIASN

[3] = biological target: T1, Human β-FXIIa; test: FXIIa competitive inhibition assay, colorimetric substrate Ac-QRFR-pNA; type: biochemical
Description: as §1

SMILES	Ki [1]	affinity for trypsin (in words) [2]	other results
CC[C@H](C)[C@@H]1NC(=O)CNC(=O)CNC(=O)[C@H](CC(=O)O)NC(=O)[C@H](CO)NC(=O)CNC(=O)[C@H](CO)NC(=O)CNC(=O)[C@@H]2CSSC[C@@H]3NC(=O)[C@H](CC(=O)O)NC(=O)[C@H](CO)NC(=O)[C@H](CC(=O)O)NC(=O)[C@H](CCCNC(=N)N)NC(=O)[C@H](CCCNC(=N)N)NC(=O)[C@@H]4CSSC[C@H](NC(=O)[C@H]([C@@H](C)CC)NC(=O)[C@H](CSSC[C@H](NC1=O)C(=O)N1CCC[C@H]1C(=O)N[C@@H](CCCNC(=N)N)C(=O)N[C@@H]([C@@H](C)CC)C(=O)NCC(=O)N[C@@H](CCCNC(=N)N)C(=O)N[C@@H](CC(C)C)C(=O)N4)NC(=O)[C@H](C)NC(=O)CNC(=O)[C@@H]1CCCN1C3=O)C(=O)N[C@@H](CCCNC(=N)N)C(=O)N[C@@H](CCCCN)C(=O)N[C@@H]([C@@H](C)O)C(=O)N[C@@H](CCCNC(=N)N)C(=O)N[C@@H](Cc1ccccc1)C(=O)N2 [Cyclic [A25K]MCoFx7] (cyclo(ACICRKTRFCGSGSDGGICPRIGRLCRRDSDCPG); disulfide 2-19, 4-26, 10-32)	0.046 ± 0.005 nM		
CC[C@H](C)[C@@H]1NC(=O)CNC(=O)CNC(=O)[C@@H]2CCCN2C(=O)[C@H](CO)NC(=O)CNC(=O)[C@H](CO)NC(=O)CNC(=O)[C@@H]2CSSC[C@@H]3NC(=O)[C@H](CC(=O)O)NC(=O)[C@H](CO)NC(=O)[C@H](CC(=O)O)NC(=O)[C@H](CCCNC(=N)N)NC(=O)[C@H](CCCNC(=N)N)NC(=O)[C@@H]4CSSC[C@H](NC(=O)[C@H]([C@@H](C)CC)NC(=O)[C@H](CSSC[C@H](NC1=O)C(=O)N1CCC[C@H]1C(=O)N[C@@H](CCCNC(=N)N)C(=O)N[C@@H]([C@@H](C)CC)C(=O)NCC(=O)N[C@@H](CCCNC(=N)N)C(=O)N[C@@H](CC(C)C)C(=O)N4)NC(=O)[C@H](C)NC(=O)CNC(=O)[C@@H]1CCCN1C3=O)C(=O)N[C@@H](CCCNC(=N)N)C(=O)N[C@@H](C)C(=O)N[C@@H]([C@@H](C)O)C(=O)N[C@@H](CCCNC(=N)N)C(=O)N[C@@H](Cc1ccccc1)C(=O)N2 [Cyclic [D34P]MCoFx7] (cyclo(ACICRATRFCGSGSPGGICPRIGRLCRRDSDCPG); disulfide 2-19, 4-26, 10-32)	0.091 nM		
CC[C@H](C)[C@@H]1NC(=O)CNC(=O)CNC(=O)[C@H](CC(=O)O)NC(=O)[C@H](CO)NC(=O)CNC(=O)[C@H](CO)NC(=O)CNC(=O)[C@@H]2CSSC[C@@H]3NC(=O)[C@H](CC(=O)O)NC(=O)[C@H](CO)NC(=O)[C@H](CC(=O)O)NC(=O)[C@H](CCCNC(=N)N)NC(=O)[C@H](CCC(=O)O)NC(=O)[C@@H]4CSSC[C@H](NC(=O)[C@H]([C@@H](C)CC)NC(=O)[C@H](CSSC[C@H](NC1=O)C(=O)N1CCC[C@H]1C(=O)N[C@@H](CCCNC(=N)N)C(=O)N[C@@H]([C@@H](C)CC)C(=O)NCC(=O)N[C@@H](CCCNC(=N)N)C(=O)N[C@@H](CC(C)C)C(=O)N4)NC(=O)[C@H](C)NC(=O)CNC(=O)[C@@H]1CCCN1C3=O)C(=O)N[C@@H](CCCNC(=N)N)C(=O)N[C@@H](C)C(=O)N[C@@H]([C@@H](C)O)C(=O)N[C@@H](CCCNC(=N)N)C(=O)N[C@@H](Cc1ccccc1)C(=O)N2 [Cyclic [R12E]MCoFx7] (cyclo(ACICRATRFCGSGSDGGICPRIGRLCERDSDCPG); disulfide 2-19, 4-26, 10-32)	0.13 ± 0.007 nM		
CC[C@H](C)[C@@H]1NC(=O)[C@@H]2CSSC[C@H](NC(=O)[C@H](CCCNC(=N)N)NC(=O)CNC(=O)CNC(=O)[C@@H](N)CC(=O)O)C(=O)N[C@@H](CS)C(=O)NCC(=O)NCC(=O)N[C@@H](Cc3ccc(O)cc3)C(=O)N[C@@H](CC(C)C)C(=O)N[C@@H](C(C)C)C(=O)N[C@H]3CSSC[C@H](NC1=O)C(=O)N[C@@H](C(C)C)C(=O)N[C@@H](Cc1ccccc1)C(=O)N[C@@H](CCCCN)C(=O)N[C@@H](CCCCN)C(=O)N[C@@H](Cc1c[nH]cn1)C(=O)N[C@H](C(=O)NCC(=O)N[C@@H](CO)C(=O)NCC(=O)N[C@@H](CO)C(=O)O)CSSC[C@H](NC(=O)[C@H](CC(=O)O)NC(=O)[C@H](CO)NC(=O)[C@H](CC(=O)O)NC(=O)[C@H](CCCNC(=N)N)NC(=O)[C@H](CCCNC(=N)N)NC3=O)C(=O)N1CCC[C@H]1C(=O)NCC(=O)N[C@@H](C)C(=O)N2 [MCoFx5 acyclic] (H-DGGRCCGGYLVCRRDSDCPGACICVFKKHCGSGS-OH; disulfide 5-22, 12-24, 18-30)		Neither aMCoFx5 nor cMCoFx5 showed detectable affinity for trypsin	KD (nM) Trypsin Acyclic ([2]; Table 8, acyclic form): No binding
CC[C@H](C)[C@@H]1NC(=O)[C@@H]2CSSC[C@@H]3NC(=O)[C@H](CCCNC(=N)N)NC(=O)CNC(=O)CNC(=O)[C@H](CC(=O)O)NC(=O)[C@H](CO)NC(=O)CNC(=O)[C@H](CO)NC(=O)CNC(=O)[C@@H]4CSSC[C@H](NC(=O)[C@H](CC(=O)O)NC(=O)[C@H](CO)NC(=O)[C@H](CC(=O)O)NC(=O)[C@H](CCCNC(=N)N)NC(=O)[C@H](CCCNC(=N)N)NC(=O)[C@H](CSSC[C@H](NC1=O)C(=O)N[C@@H](C(C)C)C(=O)N[C@@H](Cc1ccccc1)C(=O)N[C@@H](CCCCN)C(=O)N[C@@H](CCCCN)C(=O)N[C@@H](Cc1c[nH]cn1)C(=O)N4)NC(=O)[C@H](C(C)C)NC(=O)[C@H](CC(C)C)NC(=O)[C@H](Cc1ccc(O)cc1)NC(=O)CNC(=O)CNC(=O)[C@H](CS)NC3=O)C(=O)N1CCC[C@H]1C(=O)NCC(=O)N[C@@H](C)C(=O)N2 [MCoFx5 cyclic] (cyclo(DGGRCCGGYLVCRRDSDCPGACICVFKKHCGSGS); disulfide 5-22, 12-24, 18-30)		Neither aMCoFx5 nor cMCoFx5 showed detectable affinity for trypsin	KD (nM) Trypsin Cyclic ([2]; Table 8, cyclic form): No binding
CC[C@H](C)[C@@H]1NC(=O)[C@H](CCCNC(=N)N)NC(=O)[C@@H]2CCCN2C(=O)[C@@H](NC(=O)[C@@H](NC(=O)[C@@H](N)CCCNC(=N)N)[C@@H](C)CC)CSSC[C@@H]2NC(=O)[C@H](C)NC(=O)CNC(=O)[C@@H]3CCCN3C(=O)[C@@H]3CSSC[C@@H](C(=O)NCC(=O)O)NC(=O)[C@H](Cc4ccccc4)NC(=O)[C@H](CCCNC(=N)N)NC(=O)[C@H]([C@@H](C)O)NC(=O)[C@H](C)NC(=O)[C@H](CCCNC(=N)N)NC(=O)[C@H](CSSC[C@H](NC(=O)[C@H](CC(C)C)NC(=O)[C@H](CCCNC(=N)N)NC(=O)CNC1=O)C(=O)N[C@@H](CCCNC(=N)N)C(=O)N[C@@H](CCCNC(=N)N)C(=O)N[C@@H](CC(=O)O)C(=O)N[C@@H](CO)C(=O)N[C@@H](CC(=O)O)C(=O)N3)NC(=O)[C@H]([C@@H](C)CC)NC2=O [SEQ ID NO: 84] (H-RICPRIGRLCRRDSDCPGACICRATRFCG-OH; disulfide 3-20, 10-22, 16-28)			Ki [3]: 1.4 nM
